Like-named read-outs stand apart in the source and are kept apart here. A value given as a limit tells only on which side of the number the result lay.

The assay deals with HCT116 MTAP-deleted cell lines. In words: Cell viability assay (CellTiter-Glo, 7 days), HCT116 MTAP-deleted. The class given is cell-based. To be noted: Homo sapiens, HCT-116, HCT116 MTAP-deleted, class symbols, read-out: CC50. A digest of the protocol:
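PRMT5 inhibitors were serially diluted in DMSO and acoustically spotted as dose-response series into plates before cell seeding. Cells were grown with compound for 7 days at 37 °C, 5% CO2, 90% humidity, then viability was read by CellTiter-Glo luminescence and reported as CC50.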
(ATP-based viability assays read luminescence as a measure of living cells.)

The CC50 is the concentration giving 50% cytotoxicity. In the case of `COCc1cc(C(F)(F)F)ccc1CN(C)C(=O)c1ccc2nc(N)c3cncn3c2c1` [Ff-126, 4-amino-N-(2-(methoxymethyl)-4-(trifluoromethyl)benzyl)-N-methylimidazo[1,5-a]quinoxaline-8-carboxamide], the CC50 (cell viability) was in the range of 0.1 to 1 µM.

For the molecule `Cc1ncn2c1c(N)nc1cnc(C(=O)N3C[C@H](C)C[C@@H]4Oc5cc(C(F)(F)F)c(F)cc5[C@@H]43)cc12` [Fg-39, (4-amino-3-methylimidazo[1,5-a]pyrido[3,4-e]pyrazin-8-yl)((3R,4aS,9bS)-8-fluoro-3-methyl-7-(trifluoromethyl)-3,4,4a,9b-tetrahydrobenzofuro[3,2-b]pyridin-1(2H)-yl)methanone], for the setting “cell viability assay”, the CC50 was less than 0.1 µM.

Take `Cc1ncc2c(N)nc3cc(F)c(C(=O)N4CCC[C@@H]5Oc6cc(C(F)(F)F)ccc6[C@@H]54)cc3n12` (racemic) [Ff-99, Rac-(4-amino-7-fluoro-1-methylimidazo[1,5-a]quinoxalin-8-yl)(7-(trifluoromethyl)-3,4,4a,9b-tetrahydrobenzofuro[3,2-b]pyridin-1(2H)-yl)methanone]: where the note is “cell viability”, the CC50 was less than 0.1 µM.

For `Nc1nc2ccc(C(=O)N3CCOC[C@@H]3c3ccc(C(F)(F)F)cc3)cc2n2cnc(F)c12` [Ff-103, (S)-(4-amino-3-fluoroimidazo[1,5-a]quinoxalin-8-yl)(3-(4-(trifluoromethyl)phenyl)morpholino)methanone], under “cell viability”, the CC50 lay within 0.1 to 1 µM.

In the case of `Cc1ncc2c(N)nc3cnc(C(=O)N(C)[C@@H]4COc5cc(C(F)(F)F)ccc54)cc3n12` [Ff-509, (S)-4-amino-N,1-dimethyl-N-(6-(trifluoromethyl)-2,3-dihydrobenzofuran-3-yl)imidazo[1,5-a]pyrido[3,4-e]pyrazine-8-carboxamide], for the setting “cell viability assay”, the CC50 was less than 0.1 µM.

`C[C@@H]1CN(C(=O)c2cc3c(cc2F)nc(N)c2cncn23)[C@H]2c3ccc(OC(F)(F)F)c(F)c3C[C@H]2O1` (single isomer, unassigned) [Ff-191]: the 50% cytotoxic concentration (CC50) (cell viability) was less than 0.1 µM.

As for `CN(C(=O)c1cc2c(cc1F)nc(N)c1cncn12)[C@@H]1CCc2cc(C(F)F)ccc21` [Ff-166, (R)-4-amino-N-(5-(difluoromethyl)-2,3-dihydro-1H-inden-1-yl)-7-fluoro-N-methylimidazo[1,5-a]quinoxaline-8-carboxamide], the CC50 (cell viability) was less than 0.1 µM.

Turning to `Nc1nc2ccc(C(=O)N3CCC[C@@H]4Oc5cc(C(F)(F)F)ccc5[C@@H]43)cc2n2cnc(F)c12` [Ff-588, (4-amino-3-fluoroimidazo[1,5-a]quinoxalin-8-yl)((4aS,9bS)-7-(trifluoromethyl)-3,4,4a,9b-tetrahydrobenzofuro[3,2-b]pyridin-1(2H)-yl)methanone], the CC50 (cell viability assay) was less than 0.1 µM.

For `CN(C(=O)c1cc2c(cc1C#N)nc(N)c1cncn12)[C@@H]1COc2cc(C(F)(F)F)ccc21` [Ff-490, (S)-4-amino-7-cyano-N-methyl-N-(6-(trifluoromethyl)-2,3-dihydrobenzofuran-3-yl)imidazo[1,5-a]quinoxaline-8-carboxamide], for the setting “cell viability assay”, the CC50 is less than 0.1 µM.

Consider `Nc1nc2cc(F)c(C(=O)N3CCC4(CC4)[C@@H]4Oc5cc(C(F)(F)F)ccc5[C@@H]43)cc2n2cncc12` [Ff-676, (4-amino-7-fluoroimidazo[1,5-a]quinoxalin-8-yl)((4aS,9bS)-7-(trifluoromethyl)-2,3,4a,9b-tetrahydro-1H-spiro[benzofuro[3,2-b]pyridine-4,1′-cyclopropan]-1-yl)methanone], for which the CC50 (cell viability assay) was less than 0.1 µM.

In the case of `Cc1ncn2c1c(N)nc1cc(Cl)c(C(=O)N3CCC[C@@H]4Oc5nc(C(F)(F)F)ccc5[C@@H]43)cc12` [Ff-364, (4-amino-7-chloro-3-methylimidazo[1,5-a]quinoxalin-8-yl)((4aS,9bS)-7-(trifluoromethyl)-3,4,4a,9b-tetrahydrofuro[2,3-b:4,5-b′]dipyridin-1(2H)-yl)methanone], the CC50 (cell viability) is less than 0.1 µM.

Turning to `Nc1nc2cnc(C(=O)N3CC[C@H]4C[C@@H]3c3ccc(Cl)nc34)cc2n2cncc12` [Ff-602, (4-aminoimidazo[1,5-a]pyrido[3,4-e]pyrazin-8-yl)((5R,9S)-2-chloro-5,7,8,9-tetrahydro-6H-5,9-methanopyrido[3,2-c]azepin-6-yl)methanone], the CC50 (cell viability assay) was 0.1 to 1 µM.

`Nc1nc2cc(Cl)c(C(=O)N3CC[C@H]4C[C@@H]3c3c(F)cc(Cl)cc34)cc2n2cncc12` [Ff-488, (4-amino-7-chloroimidazo[1,5-a]quinoxalin-8-yl)((1R,5S)-7-chloro-9-fluoro-1,3,4,5-tetrahydro-2H-1,5-methanobenzo[c]azepin-2-yl)methanone]: under “cell viability assay”, the CC50 lay within 0.1 to 1 µM.

As for `C[C@@H]1CN(C(=O)c2ccc3nc(N)c4cncn4c3c2)[C@H]2c3cc(F)c(OC(F)(F)F)cc3C[C@H]2O1` (single isomer, unassigned) [Ff-628], the CC50 (cell viability assay) was less than 0.1 µM.

On to `CN(C(=O)c1ccc2nc(N)c3cncn3c2c1)[C@@H]1COc2cc(C#CC3(C)COC3)ccc21` [Ff-518, (S)-4-amino-N-methyl-N-(6-((3-methyloxetan-3-yl)ethynyl)-2,3-dihydrobenzofuran-3-yl)imidazo[1,5-a]quinoxaline-8-carboxamide], for which the CC50 (cell viability assay) was less than 0.1 µM.

`Cc1ncn2c1c(N)nc1cc(Cl)c(C(=O)N3CCC[C@@H]4Oc5nc(C(F)(F)F)ccc5[C@@H]43)cc12` (racemic) [Fg-29, Rac-(4-amino-7-chloro-3-methylimidazo[1,5-a]quinoxalin-8-yl)((4aS,9bS)-7-(trifluoromethyl)-3,4,4a,9b-tetrahydrofuro[2,3-b:4,5-b′]dipyridin-1(2H)-yl)methanone]: the CC50 (cell viability assay) was less than 0.1 µM.

Regarding `CN(C(=O)c1cc2c(cc1F)nc(N)c1cncn12)[C@@H]1COc2cc(C#N)ccc21` [Ff-269, (S)-4-amino-N-(6-cyano-2,3-dihydrobenzofuran-3-yl)-7-fluoro-N-methylimidazo[1,5-a]quinoxaline-8-carboxamide], under “cell viability”, the CC50 was less than 0.1 µM.

With `C[C@@H]1CN(C(=O)c2cc3c(cn2)nc(N)c2cncn23)[C@H]2c3ccc(OC(F)(F)F)cc3C[C@H]2O1` (single isomer, unassigned) [Ff-185], the CC50 (cell viability) was less than 0.1 µM.

With `C[C@H]1CN(C(=O)c2ccc3nc(N)c4cncn4c3c2)[C@H]2c3cc(F)c(C(F)(F)F)cc3C[C@H]2O1` [Ff-246, (4-aminoimidazo[1,5-a]quinoxalin-8-yl)((2S,4aS,9aR)-6-fluoro-2-methyl-7-(trifluoromethyl)-2,3,9,9a-tetrahydroindeno[2,1-b][1,4]oxazin-4(4aH)-yl)methanone], the CC50 (cell viability) is less than 0.1 µM.

For `CC1CN(C(=O)c2cc3c(cc2F)nc(N)c2cncn23)[C@H]2c3cc(F)ccc3C[C@H]2O1` (stereo partly drawn) [Ff-327, (4-amino-7-fluoroimidazo[1,5-a]quinoxalin-8-yl)((4aS,9aR)-6-fluoro-2-methyl-2,3,9,9a-tetrahydroindeno[2,1-b][1,4]oxazin-4(4aH)-yl)methanone], the CC50 (cell viability) was less than 0.1 µM.

As for `Nc1nc2cc(Cl)c(C(=O)N3CC[C@H]4C[C@@H]3c3ccc(OC(F)F)cc34)cc2n2cncc12` [Ff-598, (4-amino-7-chloroimidazo[1,5-a]quinoxalin-8-yl)((1R,5S)-7-(difluoromethoxy)-1,3,4,5-tetrahydro-2H-1,5-methanobenzo[c]azepin-2-yl)methanone], the CC50 (cell viability assay) was less than 0.1 µM.

Take `C[C@@H]1CCN(C(=O)c2cc3c(cc2F)nc(N)c2cncn23)C(c2ccc(C(F)(F)F)cn2)C1` (stereo partly drawn) [Ff-224, (4-amino-7-fluoroimidazo[1,5-a]quinoxalin-8-yl)((4R)-4-methyl-2-(5-(trifluoromethyl)pyridin-2-yl)piperidin-1-yl)methanone]: where the note is “cell viability”, the CC50 lay in the range of 0.1 to 1 µM.

In the case of `Nc1nc2cc(F)c(C(=O)N3CCO[C@@H]4Cc5c(ccc(Br)c5F)[C@@H]43)cc2n2cncc12` [Ff-159, (4-amino-7-fluoroimidazo[1,5-a]quinoxalin-8-yl)((4aS,9aR)-7-bromo-8-fluoro-2,3,9,9a-tetrahydroindeno[2,1-b][1,4]oxazin-4(4aH)-yl)methanone], under “cell viability”, the CC50 is less than 0.1 µM.

For the molecule `CN(C(=O)c1cc2c(cc1F)nc(N)c1cncn12)[C@@H]1COc2cc(C(F)(F)F)cc(F)c21` (single isomer, unassigned) [Ff-601], for the setting “cell viability assay”, the CC50 was less than 0.1 µM.

As to `Nc1nc2cc(F)c(C(=O)N3CCCC[C@H]3c3ccc(C(F)(F)F)cc3F)cc2n2cncc12` (single isomer, unassigned) [Ff-152], the CC50 (cell viability) is 0.1 to 1 µM.

`Nc1nc2cc(F)c(C(=O)N3CCC[C@@H]4Oc5cc(C(F)(F)F)ccc5[C@@H]43)cc2n2c(Cl)ncc12` (single isomer, unassigned) [Ff-646]: the CC50 (cell viability assay) is less than 0.1 µM.

For `C[C@@H]1CN(C(=O)c2cc3c(cc2F)nc(N)c2cncn23)[C@@H]2c3ccc(C(F)(F)F)cc3C[C@@H]2O1` (single isomer, unassigned) [Ff-78], the CC50 (cell viability) is less than 0.1 µM.

Consider `Cc1ncc2c(N)nc3cnc(C(=O)N4CCC[C@@H]5Oc6cc(S(F)(F)(F)(F)F)ccc6[C@@H]54)cc3n12` [Fg-43, (4-amino-1-methylimidazo[1,5-a]pyrido[3,4-e]pyrazin-8-yl)((4aS,9bS)-7-(pentafluoro-16-sulfaneyl)-3,4,4a,9b-tetrahydrobenzofuro[3,2-b]pyridin-1(2H)-yl)methanone], for which the CC50 (cell viability assay) is less than 0.1 µM.

For `Cn1cc(N(Cc2ccc(C(F)(F)F)cc2F)C(=O)c2cc3c(cc2F)nc(N)c2cncn23)cn1` [Ff-45, 4-amino-7-fluoro-N-(2-fluoro-4-(trifluoromethyl)benzyl)-N-(1-methyl-1H-pyrazol-4-yl)imidazo[1,5-a]quinoxaline-8-carboxamide], where the note is “cell viability”, the half-maximal cytotoxic concentration (CC50) is less than 0.1 µM.

Turning to `[2H]C([2H])([2H])N(C(=O)c1cc2c(cc1F)nc(N)c1cncn12)[C@@H](c1ccc(C(F)(F)F)cc1F)C(F)F` [Fb-18, (S)-4-amino-N-(2,2-difluoro-1-(2-fluoro-4-(trifluoromethyl)phenyl)ethyl)-7-fluoro-N-(methyl-d3)imidazo[1,5-a]quinoxaline-8-carboxamide], the CC50 (cell viability) was less than 0.1 µM.

The record behind these values is patent US12448388B2, “PRMT5 inhibitors and uses thereof” (Gilead Sciences, Inc., priority 2023, dated 2025).
